{"source": "paper PMC5218480", "about": "(PLoS ONE, 2017)", "test_system": "MV-4-11 cells", "assay": "Gene expression microarray analysis (Affymetrix PrimeView) and GSEA", "assay_type": "cell-based, human", "parameters": "RFU PODN (11730768_x_at) / Fold change /veh PODN (11730768_x_at) / RFU LINC00158 (11744669_a_at) / Fold change /veh LINC00158 (11744669_a_at) / RFU DUSP10 (11751237_a_at) / Fold change /veh DUSP10 (11751237_a_at) / RFU ID3 (11757404_x_at) / Fold change /veh ID3 (11757404_x_at) / RFU PLEKHG5 (11737974_s_at) / Fold change /veh PLEKHG5 (11737974_s_at) / RFU LRRC4B (11730491_at) / Fold change /veh LRRC4B (11730491_at) / RFU GIMAP4 (11747438_a_at) / Fold change /veh GIMAP4 (11747438_a_at) / RFU KRT8 (11758183_x_at) / Fold change /veh KRT8 (11758183_x_at) / RFU CNN1 (11734310_a_at) / Fold change /veh CNN1 (11734310_a_at) / RFU VPS37D (11726825_at) / Fold change /veh VPS37D (11726825_at) / RFU C10orf10 (11716522_x_at) / Fold change /veh C10orf10 (11716522_x_at) / RFU KIR2DL2 /// KIR2DL4 /// KIR2DL5A /// KIR2DL5B /// KIR2DS1 /// KIR2DS2 /// KIR2DS3 /// KIR2DS4 /// KIR3DL3 /// KIR3DL3 /// KIR3DS1 (11738374_at) / Fold change /veh KIR2DL2 /// KIR2DL4 /// KIR2DL5A /// KIR2DL5B /// KIR2DS1 /// KIR2DS2 /// KIR2DS3 /// KIR2DS4 /// KIR3DL3 /// KIR3DL3 /// KIR3DS1 (11738374_at) / RFU C1QL1 (11718748_at) / Fold change /veh C1QL1 (11718748_at) / RFU TMPRSS4 (11747572_a_at) / Fold change /veh TMPRSS4 (11747572_a_at) / RFU HAMP (11756126_x_at) / Fold change /veh HAMP (11756126_x_at) / RFU RNFT2 (11725882_a_at) / Fold change /veh RNFT2 (11725882_a_at) / RFU NR4A2 (11747474_a_at) / Fold change /veh NR4A2 (11747474_a_at) / RFU ABCC12 (11746883_a_at) / Fold change /veh ABCC12 (11746883_a_at) / RFU TMEM136 (11760407_x_at) / Fold change /veh TMEM136 (11760407_x_at) / RFU CLDN22 /// WWC2 (11732394_at) / Fold change /veh CLDN22 /// WWC2 (11732394_at) / RFU HLA-DPB1 (11760878_x_at) / Fold change /veh HLA-DPB1 (11760878_x_at) / RFU SPINT1 (11716480_a_at) / Fold change /veh SPINT1 (11716480_a_at) / RFU GAP43 (11754022_s_at) / Fold change /veh GAP43 (11754022_s_at) / RFU A4GNT (11735810_at) / Fold change /veh A4GNT (11735810_at) / RFU PRB3 (11715151_x_at) / Fold change /veh PRB3 (11715151_x_at) / RFU TUBB4B (11761932_at) / Fold change /veh TUBB4B (11761932_at) / RFU CAPN14 (11732068_a_at) / Fold change /veh CAPN14 (11732068_a_at) / RFU TMCC2 (11721928_a_at) / Fold change /veh TMCC2 (11721928_a_at) / RFU IRGQ (11745062_a_at) / Fold change /veh IRGQ (11745062_a_at) / RFU FAM174B (11720279_a_at) / Fold change /veh FAM174B (11720279_a_at) / RFU TMPRSS4 (11748680_a_at) / Fold change /veh TMPRSS4 (11748680_a_at) / RFU FAM212B (11763350_a_at) / Fold change /veh FAM212B (11763350_a_at) / RFU PLEKHG5 (11743358_a_at) / Fold change /veh PLEKHG5 (11743358_a_at) / RFU ZSCAN30 (11745921_a_at) / Fold change /veh ZSCAN30 (11745921_a_at) / RFU CMKLR1 (11741424_a_at) / Fold change /veh CMKLR1 (11741424_a_at) / RFU LOC101060620 /// MAPK8IP1 (11723275_at) / Fold change /veh LOC101060620 /// MAPK8IP1 (11723275_at) / RFU SPTSSB (11747773_x_at) / Fold change /veh SPTSSB (11747773_x_at) / RFU PRSS12 (11739890_at) / Fold change /veh PRSS12 (11739890_at) / RFU BIN1 (11741810_x_at) / Fold change /veh BIN1 (11741810_x_at) / RFU WNT11 (11732464_a_at) / Fold change /veh WNT11 (11732464_a_at) / RFU C10orf10 (11716521_a_at) / Fold change /veh C10orf10 (11716521_a_at) / RFU C5orf56 (11738089_at) / Fold change /veh C5orf56 (11738089_at) / RFU CYB561 (11721691_x_at) / Fold change /veh CYB561 (11721691_x_at) / RFU ANKRD19P (11752326_a_at) / Fold change /veh ANKRD19P (11752326_a_at) / RFU OR2T12 /// OR2T33 /// OR2T8 (11738714_s_at) / Fold change /veh OR2T12 /// OR2T33 /// OR2T8 (11738714_s_at) / RFU VCAN (11748164_a_at) / Fold change /veh VCAN (11748164_a_at) / RFU JSRP1 (11732532_at) / Fold change /veh JSRP1 (11732532_at) / RFU KRTAP10-11 (11738290_x_at) / Fold change /veh KRTAP10-11 (11738290_x_at) / RFU MYO3A (11730013_a_at) / Fold change /veh MYO3A (11730013_a_at) / RFU EBF3 (11725865_a_at) / Fold change /veh EBF3 (11725865_a_at) / RFU CAMK2N1 (11719241_x_at) / Fold change /veh CAMK2N1 (11719241_x_at) / RFU C5orf56 (11738088_a_at) / Fold change /veh C5orf56 (11738088_a_at) / RFU OLFML3 (11715873_a_at) / Fold change /veh OLFML3 (11715873_a_at) / RFU LOC100653217 /// NTM (11731650_a_at) / Fold change /veh LOC100653217 /// NTM (11731650_a_at) / RFU MAPK11 (11762145_a_at) / Fold change /veh MAPK11 (11762145_a_at) / RFU FIZ1 (11724087_x_at) / Fold change /veh FIZ1 (11724087_x_at) / RFU OASL (11726364_x_at) / Fold change /veh OASL (11726364_x_at) / RFU SOX15 (11748057_x_at) / Fold change /veh SOX15 (11748057_x_at) / RFU CD79A (11719716_a_at) / Fold change /veh CD79A (11719716_a_at) / RFU HIST1H1D (11736915_at) / Fold change /veh HIST1H1D (11736915_at) / RFU CASKIN2 (11723855_a_at) / Fold change /veh CASKIN2 (11723855_a_at) / RFU LOC730098 (11760151_x_at) / Fold change /veh LOC730098 (11760151_x_at) / RFU OR4N2 (11742367_at) / Fold change /veh OR4N2 (11742367_at) / RFU PRRT2 (11749266_a_at) / Fold change /veh PRRT2 (11749266_a_at) / RFU SNX32 (11753110_a_at) / Fold change /veh SNX32 (11753110_a_at) / RFU CDHR5 (11726645_a_at) / Fold change /veh CDHR5 (11726645_a_at) / RFU RCAN1 (11760418_a_at) / Fold change /veh RCAN1 (11760418_a_at) / RFU FAM167A (11723789_a_at) / Fold change /veh FAM167A (11723789_a_at) / RFU FAM26E (11764081_at) / Fold change /veh FAM26E (11764081_at) / RFU ISYNA1 (11749810_s_at) / Fold change /veh ISYNA1 (11749810_s_at) / RFU ACY1 (11761880_at) / Fold change /veh ACY1 (11761880_at) / RFU 11764098_at / Fold change /veh 11764098_at / RFU SAMD14 (11745864_x_at) / Fold change /veh SAMD14 (11745864_x_at) / RFU NPB (11741838_a_at) / Fold change /veh NPB (11741838_a_at) / RFU TMPRSS6 (11731388_a_at) / Fold change /veh TMPRSS6 (11731388_a_at) / RFU KRTAP10-2 (11738614_at) / Fold change /veh KRTAP10-2 (11738614_at) / RFU ARHGAP8 /// PRR5-ARHGAP8 (11727945_x_at) / Fold change /veh ARHGAP8 /// PRR5-ARHGAP8 (11727945_x_at) / RFU KRTAP5-7 /// NADSYN1 (11734609_at) / Fold change /veh KRTAP5-7 /// NADSYN1 (11734609_at) / RFU RASL12 (11751679_a_at) / Fold change /veh RASL12 (11751679_a_at) / RFU CDKN2B (11736163_a_at) / Fold change /veh CDKN2B (11736163_a_at) / RFU PRF1 (11729649_at) / Fold change /veh PRF1 (11729649_at) / RFU, ZNF638 /// ZNF638-IT1 / Fold change vs veh, ZNF638 /// ZNF638-IT1 / RFU, PANK3 / Fold change vs veh, PANK3 / RFU, SH3YL1 / Fold change vs veh, SH3YL1 / RFU, ZEB2 / Fold change vs veh, ZEB2 / RFU, NRIP1 / Fold change vs veh, NRIP1 / RFU, PTTG1IP / Fold change vs veh, PTTG1IP / RFU, CAPN2 / Fold change vs veh, CAPN2 / RFU, MED14 / Fold change vs veh, MED14 / RFU, SNORA58 / Fold change vs veh, SNORA58 / RFU, C1orf63 / Fold change vs veh, C1orf63 / RFU, LRRFIP1 / Fold change vs veh, LRRFIP1 / RFU, NDUFAF7 / Fold change vs veh, NDUFAF7 / RFU, SLC12A2 / Fold change vs veh, SLC12A2 / RFU, IBTK / Fold change vs veh, IBTK / RFU, ESF1 / Fold change vs veh, ESF1 / Fold change vs veh, TMEM50B / RFU, TAOK1 / Fold change vs veh, TAOK1 / RFU, ACBD3 / Fold change vs veh, ACBD3 / RFU, TMA16 / Fold change vs veh, TMA16 / RFU, RWDD3 / Fold change vs veh, RWDD3 / RFU, BCAT1 / Fold change vs veh, BCAT1 / RFU, EDEM3 / Fold change vs veh, EDEM3 / RFU, TMEM33 / Fold change vs veh, TMEM33 / RFU, WDR75 / Fold change vs veh, WDR75 / RFU, AHCTF1 / Fold change vs veh, AHCTF1 / RFU, TFRC / Fold change vs veh, TFRC / RFU, ZDHHC17 / Fold change vs veh, ZDHHC17 / RFU, NOM1 / Fold change vs veh, NOM1 / RFU, ARL8B / Fold change vs veh, ARL8B / RFU, ZBTB11 / Fold change vs veh, ZBTB11 / RFU, TAMM41 / Fold change vs veh, TAMM41 / RFU, KIAA1704 /// LOC100996395 / Fold change vs veh, KIAA1704 /// LOC100996395 / RFU, ING1 / Fold change vs veh, ING1 / RFU, TRMT61B / Fold change vs veh, TRMT61B / RFU, FUBP3 / Fold change vs veh, FUBP3 / RFU, TP53 / Fold change vs veh, TP53 / RFU, TNKS2 / Fold change vs veh, TNKS2 / RFU, ZFP14 / Fold change vs veh, ZFP14 / RFU, ACTR2 / Fold change vs veh, ACTR2 / RFU, PPP3R1 / Fold change vs veh, PPP3R1 / RFU, PIK3R1 / Fold change vs veh, PIK3R1 / RFU, HNRNPA1 / Fold change vs veh, HNRNPA1 / RFU, RNF170 / Fold change vs veh, RNF170 / RFU, ZNF28 / Fold change vs veh, ZNF28 / RFU, RNGTT / Fold change vs veh, RNGTT / RFU, OGT / Fold change vs veh, OGT / RFU, BRD1 / Fold change vs veh, BRD1 / RFU, MARS / Fold change vs veh, MARS / RFU, ZNF655 / Fold change vs veh, ZNF655 / RFU, FAHD1 / Fold change vs veh, FAHD1 / RFU, BDP1 / Fold change vs veh, BDP1 / RFU, LRRCC1 / Fold change vs veh, LRRCC1 / RFU, ARID1A / Fold change vs veh, ARID1A / RFU, ZNF146 / Fold change vs veh, ZNF146 / RFU, ZNF330 / Fold change vs veh, ZNF330 / RFU, GPN3 / Fold change vs veh, GPN3 / RFU, C9orf123 / Fold change vs veh, C9orf123 / RFU, N4BP2L2 / Fold change vs veh, N4BP2L2 / RFU, ARFIP1 / Fold change vs veh, ARFIP1 / RFU, FAM179B / Fold change vs veh, FAM179B / RFU, BCL10 / Fold change vs veh, BCL10 / RFU, UHRF1BP1L / Fold change vs veh, UHRF1BP1L / RFU, BET1 / Fold change vs veh, BET1 / RFU, CNOT2 / Fold change vs veh, CNOT2 / RFU, ZNF268 / Fold change vs veh, ZNF268 / Fold change vs veh, ZNF507 / RFU, DGCR2 / Fold change vs veh, DGCR2 / RFU, WDSUB1 / Fold change vs veh, WDSUB1 / Fold change vs veh, HSP90B1 /// MIR3652 / RFU, ADSS / Fold change vs veh, ADSS / RFU, GK / Fold change vs veh, GK / RFU, ZNF148 / Fold change vs veh, ZNF148 / RFU, TAF9 / Fold change vs veh, TAF9 / RFU, SLC1A5 / Fold change vs veh, SLC1A5 / RFU, SLMO2 / Fold change vs veh, SLMO2 / RFU, ABCC4 / Fold change vs veh, ABCC4 / RFU, LOC101060439 /// RAP1B / Fold change vs veh, LOC101060439 /// RAP1B / RFU, RFX7 / Fold change vs veh, RFX7 / RFU, GTPBP10 / Fold change vs veh, GTPBP10 / RFU, CNEP1R1 / Fold change vs veh, CNEP1R1 / RFU, BIVM-ERCC5 /// ERCC5 / Fold change vs veh, BIVM-ERCC5 /// ERCC5 / RFU, ILF3 / Fold change vs veh, ILF3 / RFU 11762660_at / Fold change /veh 11762660_at / RFU VCAN (11757783_s_at) / Fold change /veh VCAN (11757783_s_at) / RFU DDX43 (11728927_at) / Fold change /veh DDX43 (11728927_at) / RFU KRT8 (11758188_x_at) / Fold change /veh KRT8 (11758188_x_at) / RFU NKD1 (11759106_at) / Fold change /veh NKD1 (11759106_at) / RFU SRD5A1 (11742802_a_at) / Fold change /veh SRD5A1 (11742802_a_at) / RFU TPSAB1 /// TPSB2 (11721975_s_at) / Fold change /veh TPSAB1 /// TPSB2 (11721975_s_at) / RFU GSTM3 (11746129_a_at) / Fold change /veh GSTM3 (11746129_a_at) / RFU IL23R (11737362_x_at) / Fold change /veh IL23R (11737362_x_at) / RFU TMEM51 (11727254_a_at) / Fold change /veh TMEM51 (11727254_a_at) / RFU PIWIL2 (11732686_x_at) / Fold change /veh PIWIL2 (11732686_x_at) / RFU ORM1 (11744905_x_at) / Fold change /veh ORM1 (11744905_x_at) / RFU CCDC152 (11743942_at) / Fold change /veh CCDC152 (11743942_at) / RFU ECM1 (11717891_a_at) / Fold change /veh ECM1 (11717891_a_at) / RFU IL23R (11748794_a_at) / Fold change /veh IL23R (11748794_a_at) / RFU TNFAIP8L3 (11732012_x_at) / Fold change /veh TNFAIP8L3 (11732012_x_at) / RFU MBOAT4 (11741988_at) / Fold change /veh MBOAT4 (11741988_at) / RFU 11764193_at / Fold change /veh 11764193_at / RFU TMEM53 (11763286_at) / Fold change /veh TMEM53 (11763286_at) / RFU MAGEB2 (11727129_at) / Fold change /veh MAGEB2 (11727129_at) / RFU TMEM200A (11744735_a_at) / Fold change /veh TMEM200A (11744735_a_at) / RFU CCDC152 (11751479_a_at) / Fold change /veh CCDC152 (11751479_a_at) / RFU FAM211A (11726209_a_at) / Fold change /veh FAM211A (11726209_a_at) / RFU RGS16 (11746705_a_at) / Fold change /veh RGS16 (11746705_a_at) / RFU VCAN (11755009_s_at) / Fold change /veh VCAN (11755009_s_at) / RFU RHOB (11743442_s_at) / Fold change /veh RHOB (11743442_s_at) / RFU RGS16 (11720943_a_at) / Fold change /veh RGS16 (11720943_a_at) / RFU RGS16 (11720944_at) / Fold change /veh RGS16 (11720944_at) / RFU, VPS4B / Fold change vs veh, VPS4B / RFU, CREB1 / Fold change vs veh, CREB1 / RFU, DNAJC13 / Fold change vs veh, DNAJC13 / RFU, GNAQ / Fold change vs veh, GNAQ / RFU, CDK5R1 / Fold change vs veh, CDK5R1 / RFU, ZRANB3 / Fold change vs veh, ZRANB3 / RFU, CUL4A / Fold change vs veh, CUL4A / RFU, CCNY / Fold change vs veh, CCNY / RFU, UFL1 / Fold change vs veh, UFL1 / RFU, COG3 / Fold change vs veh, COG3 / RFU, DIAPH2 / Fold change vs veh, DIAPH2 / RFU, SKA2 / Fold change vs veh, SKA2 / RFU, AFF3 / Fold change vs veh, AFF3 / RFU, LMF1 / Fold change vs veh, LMF1 / RFU, IPO11 / Fold change vs veh, IPO11 / RFU, DFFB / Fold change vs veh, DFFB / RFU, FOXP1 / Fold change vs veh, FOXP1 / RFU, CARD8 / Fold change vs veh, CARD8 / RFU, STRN3 / Fold change vs veh, STRN3 / RFU, ADK / Fold change vs veh, ADK / RFU, RASSF2 / Fold change vs veh, RASSF2 / RFU, WIPF1 / Fold change vs veh, WIPF1 / RFU, LARP1B / Fold change vs veh, LARP1B / RFU, RASA1 / Fold change vs veh, RASA1 / RFU, RB1 / Fold change vs veh, RB1 / RFU, PPFIA1 / Fold change vs veh, PPFIA1 / RFU, MAT2A / Fold change vs veh, MAT2A / RFU, CCT5 / Fold change vs veh, CCT5 / RFU, WDR92 / Fold change vs veh, WDR92 / RFU, CUX1 / Fold change vs veh, CUX1 / RFU, TTC7A / Fold change vs veh, TTC7A / RFU, TMEM135 / Fold change vs veh, TMEM135 / RFU, DEPTOR / Fold change vs veh, DEPTOR / RFU, CPM / Fold change vs veh, CPM / RFU, DNAJB6 / Fold change vs veh, DNAJB6 / RFU, CACNA2D3 / Fold change vs veh, CACNA2D3 / RFU, DTX4 / Fold change vs veh, DTX4 / RFU, TFCP2 / Fold change vs veh, TFCP2 / RFU, GMCL1 /// GMCL1P1 / Fold change vs veh, GMCL1 /// GMCL1P1 / RFU, AEBP2 / Fold change vs veh, AEBP2 / RFU, SNHG1 /// SNORD22 /// SNORD25 /// SNORD26 /// SNORD27 /// SNORD28 /// SNORD29 /// SNORD31 / Fold change vs veh, SNHG1 /// SNORD22 /// SNORD25 /// SNORD26 /// SNORD27 /// SNORD28 /// SNORD29 /// SNORD31 / Fold change (Aza/veh), C12orf56 (ProbeSet 11735607_a_at) / Fold change (ACY-1035/veh), C12orf56 (ProbeSet 11735607_a_at) / Fold change (Aza/veh), FGFR1OP (ProbeSet 11751329_s_at) / Fold change (ACY-1035/veh), FGFR1OP (ProbeSet 11751329_s_at) / Fold change (Aza/veh), VPS36 (ProbeSet 11739960_a_at) / Fold change (ACY-1035/veh), VPS36 (ProbeSet 11739960_a_at) / RFU SYPL1 (11715823_x_at) / Fold change /veh SYPL1 (11715823_x_at) / RFU IGFBP7 (11715501_s_at) / Fold change /veh IGFBP7 (11715501_s_at) / RFU REEP3 (11722064_at) / Fold change /veh REEP3 (11722064_at) / RFU IGLL1 (11728026_x_at) / Fold change /veh IGLL1 (11728026_x_at): dose or concentration left out as unconfirmed", "conditions": "ProbeSet 11729384_s_at; LIST D"}
{"smiles": "Nc1ncn([C@@H]2O[C@H](CO)[C@@H](O)[C@H]2O)c(=O)n1", "note": "[azacitidine]", "values": [{"measurement": "Fold change vs veh, CCNY", "result": 0.82}]}
